# Results taken from ChEMBL document CHEMBL1156356, “Aromatase inhibitors from Broussonetia papyrifera” (J Nat Prod, 2001).
# Target: T1, Aromatase (Homo sapiens, UniProt P11511)
# T1 sequence (P11511 whole entry): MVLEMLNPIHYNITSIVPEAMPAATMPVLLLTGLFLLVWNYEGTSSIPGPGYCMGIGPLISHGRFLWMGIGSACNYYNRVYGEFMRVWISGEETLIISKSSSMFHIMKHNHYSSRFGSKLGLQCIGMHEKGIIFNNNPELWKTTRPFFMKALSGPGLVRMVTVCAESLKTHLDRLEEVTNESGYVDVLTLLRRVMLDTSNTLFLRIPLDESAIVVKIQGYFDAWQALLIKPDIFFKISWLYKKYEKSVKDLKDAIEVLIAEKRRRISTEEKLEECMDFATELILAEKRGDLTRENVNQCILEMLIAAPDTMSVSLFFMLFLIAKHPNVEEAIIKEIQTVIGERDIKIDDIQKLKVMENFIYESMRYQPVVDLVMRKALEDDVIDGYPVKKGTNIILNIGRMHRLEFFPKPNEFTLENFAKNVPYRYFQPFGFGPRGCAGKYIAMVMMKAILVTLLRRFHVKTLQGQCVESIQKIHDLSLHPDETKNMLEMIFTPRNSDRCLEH
# Assay: Inhibition of aromatase from human placental microsomes
row,SMILES,IC50 [µM]
1,COc1cc(O)cc(-c2cc3ccc(O)cc3o2)c1CC=C(C)C [MORACIN I],> 123
2,CC(C)(O)[C@@H]1Cc2cc3ccc(=O)oc3cc2O1 [MARMESIN],> 162
3,CC(C)=CCc1c(O)cc2oc(-c3ccc(O)c(O)c3)c(O)c(=O)c2c1O [GANCAONIN P],> 108
4,COc1cc(O)ccc1CCCc1ccc(O)cc1 [BROUSSONIN B],> 155
5,Oc1cc(O)cc(-c2cc3ccc(O)cc3o2)c1 [MORACIN M],> 165
6,O=c1ccc2c(o1)CCCC2,> 266
7,CC1(C)C[C@H](O)C[C@@]2(C)OC(=O)C=C12 [LOLIOLIDE],> 204
8,CC(C)=CCc1cc2cc(-c3cc(O)cc(O)c3)oc2cc1O [MORACIN N],31.1
9,CC(C)=CCc1cc(-c2oc3c(CC=C(C)C)c(O)cc(O)c3c(=O)c2O)ccc1O [BROUSSOFLAVONOL F],9.7
10,CC(C)=CCc1cc(C(=O)/C=C/c2ccc(O)cc2)c(O)cc1O [BROUSSOCHALCONE B],> 123
11,COc1ccc(CCCc2ccc(O)c(OC)c2)c(OC)c1 [BROUSSONIN F],> 132
12,O=C1c2c(O)cc(O)cc2O[C@H](c2ccc(O)cc2O)[C@H]1O [DIHYDROMORIN],> 131
13,O=C1c2c(O)cc(O)cc2O[C@H](c2ccc(O)cc2)[C@H]1O [DIHYDROKAEMPFEROL],> 139
14,CC(C)=CCc1cc([C@H]2Oc3c(CC=C(C)C)c(O)cc(O)c3C(=O)[C@@H]2O)ccc1O,> 94.2
15,CC1(C)C=Cc2c(O)cc(-c3cc4ccc(O)cc4o3)cc2O1 [MORACIN D],> 130
16,CC(C)=CCC/C(C)=C/Cc1c(O)cc2oc(-c3ccc(O)c(O)c3)c(O)c(=O)c2c1O,> 91.2
17,CC(C)=CCc1cc([C@@H]2CCc3ccc(O)cc3O2)ccc1O,> 129

row,SMILES,IC50 [µM]
1,COc1ccc(CCCc2ccc(O)cc2)c(O)c1 [BROUSSONIN A],30
2,O=C(/C=C/c1ccc(O)cc1O)c1ccc(O)cc1O,> 147
3,COc1ccc(CCCc2ccc(OC)c(O)c2)c(O)c1 [BROUSSONIN E],> 139
4,CC(C)=CCc1c(O)cc(O)cc1-c1cc2ccc(O)cc2o1 [DEMETHYLMORACIN I],31.1
5,CC1=C[C@@H]2c3c(O)cc(-c4cc5ccc(O)cc5o4)cc3O[C@]3(c4ccc(O)cc4O)Oc4cc(O)ccc4[C@@H](C1)C23 (some centres undefined) [ALBANOL A],7.5
6,CC(C)=CCc1cc2c(cc1O)O[C@H](c1ccc(O)cc1)CC2=O [BAVACHIN],> 123
7,CC(C)=CCc1cc(C(=O)/C=C/c2ccc(O)c(O)c2)c(O)cc1O [BROUSSOCHALCONE A],> 118
8,Oc1ccc([C@@H]2CCc3ccc(O)cc3O2)cc1,> 165
9,COc1c(-c2ccc(O)c(O)c2)oc2cc(O)c(C/C=C(\C)CCC=C(C)C)c(O)c2c1=O,> 88.4
10,CC(C)=CCc1c(O)ccc(CCCc2ccc(O)cc2)c1O,> 128
11,CC(C)=CCc1c(O)ccc2c1O[C@H](c1ccc(O)cc1O)CC2=O,3.4
12,COc1cc(O)ccc1CCCc1ccc(O)c(CC=C(C)C)c1,> 123
13,Oc1ccc(CCCc2ccc(O)cc2O)cc1,> 164
14,CC(C)(O)C1Cc2c(ccc3c2O[C@H](c2ccc(O)cc2O)CC3=O)O1 (some centres undefined),0.1
15,CC(C)=CCc1c(O)ccc(C(=O)/C=C/c2ccc(O)cc2)c1O [ISOBAVACHALCONE],> 123
16,CC(C)=CCc1cc(-c2oc3cc(O)cc(O)c3c(=O)c2O)ccc1O [ISOLICOFLAVONOL],0.1
17,CC(C)=CCc1cc(C2CC(=O)c3c(O)cc(O)cc3O2)ccc1O (centres undefined),0.4
